According to publication PMC12562668, “Targeting NFAT2 for Reversing the P-gp-Mediated Multidrug Resistance to Paclitaxel by Manidipine” (Cancers, 2025):

Legend:
[1] = target: T1, NFAT2 (Homo sapiens, UniProt O95644); assay: DARTS in A549/T cell lysate with NFAT2 immunoblot; type: cell-based
T1 construct: gene NFATC1
T1 sequence (O95644 1-943): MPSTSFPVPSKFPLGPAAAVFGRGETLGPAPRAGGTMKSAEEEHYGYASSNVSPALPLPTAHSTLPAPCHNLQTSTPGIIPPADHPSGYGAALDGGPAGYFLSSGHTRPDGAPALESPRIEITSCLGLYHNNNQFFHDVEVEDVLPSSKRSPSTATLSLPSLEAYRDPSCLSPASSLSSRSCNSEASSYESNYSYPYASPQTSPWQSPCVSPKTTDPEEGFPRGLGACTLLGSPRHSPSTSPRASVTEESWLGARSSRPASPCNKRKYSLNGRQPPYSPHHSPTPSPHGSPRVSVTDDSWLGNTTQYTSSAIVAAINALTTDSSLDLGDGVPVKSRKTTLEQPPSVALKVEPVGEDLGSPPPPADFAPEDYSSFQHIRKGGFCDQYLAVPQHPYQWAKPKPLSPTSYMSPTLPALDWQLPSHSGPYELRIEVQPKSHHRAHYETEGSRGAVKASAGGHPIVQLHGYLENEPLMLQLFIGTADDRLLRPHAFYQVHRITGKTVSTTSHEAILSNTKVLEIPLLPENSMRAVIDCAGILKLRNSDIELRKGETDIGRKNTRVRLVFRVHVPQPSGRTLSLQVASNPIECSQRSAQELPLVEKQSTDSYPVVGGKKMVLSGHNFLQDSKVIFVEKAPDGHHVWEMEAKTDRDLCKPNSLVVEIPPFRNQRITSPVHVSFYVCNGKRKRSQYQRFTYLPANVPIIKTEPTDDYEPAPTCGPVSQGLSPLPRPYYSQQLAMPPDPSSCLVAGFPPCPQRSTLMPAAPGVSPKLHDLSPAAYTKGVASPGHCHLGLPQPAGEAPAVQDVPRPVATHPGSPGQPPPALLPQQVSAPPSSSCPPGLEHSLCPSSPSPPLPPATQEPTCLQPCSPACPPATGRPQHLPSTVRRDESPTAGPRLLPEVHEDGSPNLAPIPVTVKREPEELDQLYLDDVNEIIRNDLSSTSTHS

[2] = target: T2, P-glycoprotein (P-gp) (Homo sapiens, UniProt P08183); assay: Pgp-Glo P-gp ATPase assay: stimulation of basal activity; also inhibition of verapamil-stimulated activity; type: biochemical
T2 construct: gene ABCB1
T2 sequence (P08183 whole entry): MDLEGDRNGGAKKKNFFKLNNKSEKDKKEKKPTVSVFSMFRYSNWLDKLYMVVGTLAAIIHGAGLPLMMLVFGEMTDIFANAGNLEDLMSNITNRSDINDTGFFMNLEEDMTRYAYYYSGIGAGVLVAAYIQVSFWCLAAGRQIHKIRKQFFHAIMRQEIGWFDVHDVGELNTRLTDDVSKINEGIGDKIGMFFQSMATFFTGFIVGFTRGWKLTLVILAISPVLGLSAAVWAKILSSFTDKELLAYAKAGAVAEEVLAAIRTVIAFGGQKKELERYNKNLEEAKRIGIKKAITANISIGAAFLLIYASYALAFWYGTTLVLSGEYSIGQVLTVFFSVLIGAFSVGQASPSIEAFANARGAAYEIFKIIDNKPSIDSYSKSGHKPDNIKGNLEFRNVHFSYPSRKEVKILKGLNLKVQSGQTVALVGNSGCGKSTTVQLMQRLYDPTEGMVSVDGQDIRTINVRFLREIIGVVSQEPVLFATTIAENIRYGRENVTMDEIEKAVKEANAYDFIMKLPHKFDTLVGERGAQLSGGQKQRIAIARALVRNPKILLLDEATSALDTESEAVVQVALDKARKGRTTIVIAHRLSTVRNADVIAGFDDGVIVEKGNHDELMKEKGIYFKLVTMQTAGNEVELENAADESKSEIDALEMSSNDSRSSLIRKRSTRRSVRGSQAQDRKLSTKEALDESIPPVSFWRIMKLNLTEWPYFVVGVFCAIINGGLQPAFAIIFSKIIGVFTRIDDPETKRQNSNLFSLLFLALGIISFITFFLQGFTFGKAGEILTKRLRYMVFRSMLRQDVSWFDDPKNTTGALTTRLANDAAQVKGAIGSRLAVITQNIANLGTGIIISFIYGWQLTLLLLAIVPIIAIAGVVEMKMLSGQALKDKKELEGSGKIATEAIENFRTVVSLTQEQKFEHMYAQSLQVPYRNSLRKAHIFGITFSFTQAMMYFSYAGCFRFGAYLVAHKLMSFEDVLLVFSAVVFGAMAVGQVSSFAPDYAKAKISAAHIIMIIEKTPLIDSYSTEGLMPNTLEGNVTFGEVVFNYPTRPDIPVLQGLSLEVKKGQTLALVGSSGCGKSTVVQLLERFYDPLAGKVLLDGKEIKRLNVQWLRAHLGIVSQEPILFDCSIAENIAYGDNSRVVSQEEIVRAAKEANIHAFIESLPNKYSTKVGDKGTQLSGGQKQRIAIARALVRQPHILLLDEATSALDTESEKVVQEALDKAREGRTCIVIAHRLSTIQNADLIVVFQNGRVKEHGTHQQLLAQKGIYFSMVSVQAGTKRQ

EC50 [2]: 4.16 µM
SMILES: COC(=O)C1=C(C)NC(C)=C(C(=O)OCCN2CCN(C(c3ccccc3)c3ccccc3)CC2)C1c1cccc([N+](=O)[O-])c1 (centres unmarked) [MA, manidipine]
DARTS in A549/T cell lysate with NFAT2 immunoblot [1]: MA effectively protected the NFAT2 protein from proteolysis (Figure 7F,G), thereby indicating that MA is a ligand of NFAT2
